Molecular target: T1, aryl hydrocarbon receptor (AHR) (Homo sapiens, UniProt P35869)
T1 construct: human AHR in liver cytosol of mice expressing human AHR; also HepG2 (40/6) cells
T1 sequence (P35869 11-848): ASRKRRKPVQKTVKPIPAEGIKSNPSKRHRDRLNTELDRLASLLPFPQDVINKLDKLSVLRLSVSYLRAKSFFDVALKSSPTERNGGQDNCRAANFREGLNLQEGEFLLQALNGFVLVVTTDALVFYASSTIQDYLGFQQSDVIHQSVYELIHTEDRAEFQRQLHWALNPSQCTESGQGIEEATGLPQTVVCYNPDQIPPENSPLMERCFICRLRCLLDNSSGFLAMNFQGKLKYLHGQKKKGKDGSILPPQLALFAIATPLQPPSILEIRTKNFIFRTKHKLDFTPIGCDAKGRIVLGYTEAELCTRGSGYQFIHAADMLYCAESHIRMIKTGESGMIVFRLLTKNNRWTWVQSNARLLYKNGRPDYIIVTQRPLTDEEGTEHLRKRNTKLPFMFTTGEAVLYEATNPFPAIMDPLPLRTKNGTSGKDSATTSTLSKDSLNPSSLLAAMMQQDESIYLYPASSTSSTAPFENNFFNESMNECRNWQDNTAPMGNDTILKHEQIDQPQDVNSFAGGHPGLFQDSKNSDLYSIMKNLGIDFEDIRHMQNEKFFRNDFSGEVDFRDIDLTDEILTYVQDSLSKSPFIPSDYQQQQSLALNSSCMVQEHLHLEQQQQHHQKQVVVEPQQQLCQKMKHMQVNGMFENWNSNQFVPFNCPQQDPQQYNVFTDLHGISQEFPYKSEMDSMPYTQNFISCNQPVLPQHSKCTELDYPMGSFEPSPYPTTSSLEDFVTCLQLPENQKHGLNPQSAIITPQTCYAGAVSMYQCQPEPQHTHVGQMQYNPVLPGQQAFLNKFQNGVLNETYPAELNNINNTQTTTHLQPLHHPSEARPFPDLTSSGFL
Experiment: competition with […] photoaffinity ligand (PAL) in human AHR-expressing hepatic cytosol
Type: binding

IC50: 800 nM
Structure (SMILES): O=c1oc2cc(O)ccc2c2ccc(O)cc12 [UroA, Urolithin A]

From PMC6315438 (Metabolites, 2018)
